In US20220289753A1, “SHP2 INHIBITORS” (IRBM S.P.A., priority 2019, published 2022) one finds IC50 data, which are given here for 1 compound.

Broadly, the IC50 is the concentration at which inhibition is half-maximal.

Test [1] addresses T1, SHP-2 enzyme (Met1-Leu525) (Homo sapiens, UniProt Q06124).
T1 construct: synthetized by Origene, Met1-Leu525, cat #TP750155; purchased Origene TP750155
T1 sequence (Q06124 1-525): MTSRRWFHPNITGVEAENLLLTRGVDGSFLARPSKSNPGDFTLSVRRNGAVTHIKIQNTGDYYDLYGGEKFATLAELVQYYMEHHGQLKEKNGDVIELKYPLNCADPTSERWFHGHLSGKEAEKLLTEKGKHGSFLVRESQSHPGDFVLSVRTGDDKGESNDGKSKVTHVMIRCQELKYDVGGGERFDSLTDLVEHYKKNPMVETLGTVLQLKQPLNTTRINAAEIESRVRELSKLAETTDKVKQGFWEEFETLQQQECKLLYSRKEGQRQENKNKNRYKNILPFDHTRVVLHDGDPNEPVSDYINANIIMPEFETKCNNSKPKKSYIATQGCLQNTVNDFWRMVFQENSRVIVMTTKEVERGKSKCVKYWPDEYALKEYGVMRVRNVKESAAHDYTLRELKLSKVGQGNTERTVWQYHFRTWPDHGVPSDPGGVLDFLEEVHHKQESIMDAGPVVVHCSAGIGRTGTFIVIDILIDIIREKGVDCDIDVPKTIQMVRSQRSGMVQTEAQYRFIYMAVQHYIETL
Briefly: SHP2 inhibition enzymatic assay (DiFMUP substrate, IRS1 peptide activation). Particulars: SHP2 wt; activated by 500 nM IRS1 peptide; 75 μM DiFMUP substrate. The class given is biochemical. In outline:
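SHP-2 (Met1-Leu525, 0.5 nM final) preincubated 30 min with compounds and IRS1 activating peptide in HEPES pH 7.2 buffer with NaCl, KCl, EDTA, tween-20, 5 mM DTT. DiFMUP then added for 30 min at room temperature and fluorescence read. IC50 from four-parameter logistic fit of % inhibition.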

Test [2] relates to ERK phosphorylation in KYSE-520 cells. Briefly: Phospho-ERK cellular assay (Advanced phospho-ERK1/2 (Thr202/Tyr204) TR-FRET kit). The class given is cell-based. The settings on record: Homo sapiens, KYSE-520, 2 h, KYSE-520 cells, 2 h at 37° C., TR-FRET; read-out: pERK IC50. The method, boiled down: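 IC50 values are inflection points of four-parameter logistic fits of percent activity against compound dilution. Compound exposure lasted 2 h at 37° C in KYSE-520 cells. Lysates were probed overnight with Eu-cryptate/d2 antibodies to ERK1/2 phosphorylated at Thr202/Tyr204, so reduced TR-FRET indicates SHP2 inhibition.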

`N[C@@H]1c2ccccc2CC12CCN(c1nc3nc(Sc4nccnc4Cl)cnc3[nH]1)CC2` [Example 158, (S)-1′-(5-((3-chloropyrazin-2-yl)thio)-1H-imidazo[4,5-b]pyrazin-2-yl)-1,3-dihydrospiro[indene-2,4′-piperidin]-1-amine]: the IC50 in test [1] was < 500 nM; in test [2] it was < 1000 nM.
